Laboratory results published in patent US20250277028A1, “TARGETING AGENT” (JIKSAK BIOENGINEERING, INC., priority 2022, published 2025).
Non-standard residues stand in square brackets, D forms with d. Residues, ends and D or L forms follow the SMILES beside them. *: point of attachment. Dolaproine = CO[C@@H]([C@@H]1CCCN1)[C@@H](C)C(=O)O; Dil = CC[C@H](C)[C@H](NC)[C@@H](CC(=O)O)OC; X1 = C[C@@H](N*)[C@@H](O)c1ccccc1; NMeV = CN[C@H](C(=O)O)C(C)C

System: human motor neurons
Test: Pharmacological effect (axonal amount, Tuj1) of antibody-MMAE conjugate
Format: cell-based
Conditions: t-test, significance level p<0.05
Procedure: Experiments were performed using human motor neurons, for which synaptogenesis was induced using microbeads coated with the extracellular domain of LRRTM2. Culture of cells, preparation of LRRTM2 beads and induction of presynapse were performed as described in Example 1.
As the drug, a microtubule polymerization inhibitor monomethylauristatin E (MMAE: Cat. No. #HY-15575; MedChemExpress) was used. As the anti-SYT2 N-terminal antibody and the normal rabbit antibody for control, antibodies used in Example 1 were used. Conjugate of MMAE and the antibody was prepared using MagicLink™ kit (broadpharm). Preparation of conjugate was performed according to the manufacturer's protocols.
After warming the neuronal medium at 37° C. for 30 minutes, 4-aminopyridine (Sigma Aldrich) was added to the medium to have a final concentration of 100 μM and mixed. In addition, conjugate was added to have a final concentration of 1 μg/mL and mixed. […]
The axonal amount was obtained as the sum of the brightness (=(fluorescence intensity per pixel)×(pixel number)) of Tuj1 signals in the obtained fluorescence images. The relative amount of axon was calculated as the value normalized by the results obtained using the conjugate of the control normal rabbit antibody and MMAE set to 100%. […]

SMILES: CC[C@H](C)[C@@H]([C@@H](CC(=O)N1CCC[C@H]1[C@H](OC)[C@@H](C)C(=O)N[C@H](C)[C@@H](O)c1ccccc1)OC)N(C)C(=O)[C@@H](NC(=O)[C@@H](NC)C(C)C)C(C)C [MMAE, monomethyl auristatin E] (H-[NMeV]V[Dil][Dolaproine]-X1)
- axonal amount, difference from the control antibody group: no significant differences
